Measured values as given in PubChem BioAssay AID248 (DTP/NCI, 2004).
Several values for one entry are separate records, joined by “and”; a condition that tells them apart may be missing. Equal entries are not always repeated. Inconclusive results and toxic doses are left out. Rule as the data show it: active = T/C of 150% or more; inactive = T/C below 125%.

Test system: L1210 leukemia ip in BDF1 mice, survival T/C
Test: NCI In Vivo Anticancer Drug Screen. Data for tumor model L1210 Leukemia (intraperitoneal) in B6D2F1 (BDF1) mice
Settings: endpoint: mean survival time, higher = longer survival
How it was run: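 Survival endpoint. Drug-treated group vs vehicle group, expressed as T divided by C. Tumor passaged by transplantation.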

[1] = dose: 100.0 mg/kg/injection, schedule: Q04DX002 (ip), vehicle: saline with Tween-80
[2] = dose: 200.0 mg/kg/injection, schedule: Q04DX002 (ip), vehicle: saline with Tween-80
[3] = dose: 100.0 mg/kg/injection, schedule: Q04DX003 (ip), vehicle: saline with Tween-80
[4] = dose: 200.0 mg/kg/injection, schedule: Q04DX003 (ip), vehicle: saline with Tween-80
[5] = dose: 400.0 mg/kg/injection, schedule: Q04DX003 (ip), vehicle: saline with Tween-80
[6] = dose: 100.0 mg/kg/injection, schedule: Q04DX002 (ip), vehicle: Klucel (hydroxypropylcellulose) (HPC)
[7] = dose: 200.0 mg/kg/injection, schedule: Q04DX002 (ip), vehicle: Klucel (hydroxypropylcellulose) (HPC)
[8] = dose: 100.0 mg/kg/injection, schedule: Q01DX009 (ip), vehicle: saline with Tween-80
[9] = dose: 100.0 mg/kg/injection, schedule: Q04DX003 (ip), vehicle: Klucel (hydroxypropylcellulose) (HPC)
[10] = dose: 100.0 mg/kg/injection, schedule: Q01DX001 (ip), vehicle: saline
[11] = dose: 200.0 mg/kg/injection, schedule: Q01DX001 (ip), vehicle: saline

Measured: T/C

COc1ccc(OC)c(CCc2cc(OC)ccc2OC)c1
inactive: dose: 12.5 mg/kg/injection, schedule: Q01DX009 (ip), vehicle: other 93 % of control | dose: 25.0 mg/kg/injection, schedule: Q01DX009 (ip), vehicle: other 96 % of control | dose: 50.0 mg/kg/injection, schedule: Q01DX009 (ip), vehicle: other 98 % of control

CN1C(=O)CCN(CCCN2CCC(=O)N(C)C2=S)C1=S
inactive: [1] 95 % of control | [2] 95 % of control | dose: 400.0 mg/kg/injection, schedule: Q04DX002 (ip), vehicle: saline with Tween-80 88 % of control

CCOc1ccc2nc(S(N)(=O)=O)sc2c1
inactive: dose: 100.0 mg/kg/injection, schedule: Q01DX Z (ip), vehicle: saline 100 % of control | dose: 200.0 mg/kg/injection, schedule: Q01DX Z (ip), vehicle: saline 97 % of control | dose: 400.0 mg/kg/injection, schedule: Q01DX Z (ip), vehicle: saline 111 % of control

NC(c1ccccc1)c1c(O)ccc2ccccc12 (centres undefined)
inactive: dose: 100.0 mg/kg/injection, schedule: Q01DX009 (ip), vehicle: gum acacia 96 % of control | [3] 101 % of control | dose: 200.0 mg/kg/injection, schedule: Q01DX009 (ip), vehicle: gum acacia 98 % of control | [4] 93 % of control | dose: 400.0 mg/kg/injection, schedule: Q01DX009 (ip), vehicle: gum acacia 91 % of control | [5] 98 % of control

CCOC(=O)C(C(=O)OCC)C(CC(=O)C1CC1)c1ccccc1 (centres undefined)
inactive: dose: 50.0 mg/kg/injection, schedule: Q01DX001 (ip), vehicle: carboxymethylcellulose (CMC) 92 % of control | dose: 100.0 mg/kg/injection, schedule: Q01DX001 (ip), vehicle: carboxymethylcellulose (CMC) 95 % of control | [6] 97 % of control | dose: 200.0 mg/kg/injection, schedule: Q01DX001 (ip), vehicle: carboxymethylcellulose (CMC) 92 % of control | [7] 101 % of control | dose: 400.0 mg/kg/injection, schedule: Q01DX001 (ip), vehicle: carboxymethylcellulose (CMC) 95 % of control | dose: 400.0 mg/kg/injection, schedule: Q04DX002 (ip), vehicle: Klucel (hydroxypropylcellulose) (HPC) 111 % of control

Cc1cc2oc(=O)cc(N3CCOCC3)c2c(=O)o1
inactive: [8] 117 % of control | dose: 200.0 mg/kg/injection, schedule: Q01DX009 (ip), vehicle: saline with Tween-80 114 % of control

O=S1(=O)Cc2ccccc2-c2ccccc2C1Cl (centres undefined)
inactive: dose: 50.0 mg/kg/injection, schedule: Q04DX002 (ip), vehicle: Klucel (hydroxypropylcellulose) (HPC) 100 % of control | dose: 100.0 mg/kg/injection, schedule: Q01DX009 (ip), vehicle: Klucel (hydroxypropylcellulose) (HPC) 98 % of control | [6] 100 % of control | dose: 200.0 mg/kg/injection, schedule: Q01DX009 (ip), vehicle: Klucel (hydroxypropylcellulose) (HPC) 100 % of control | [7] 97 % of control | dose: 400.0 mg/kg/injection, schedule: Q01DX009 (ip), vehicle: Klucel (hydroxypropylcellulose) (HPC) 96 % of control

CC(=O)OC1CCC2C3CCC4=C(Cl)C(=O)CCC4C3CCC12C (centres undefined)
inactive: dose: 100.0 mg/kg/injection, schedule: Q01DX009 (sc), vehicle: steriod suspending solution 103 % of control | dose: 200.0 mg/kg/injection, schedule: Q01DX009 (sc), vehicle: steriod suspending solution 102 % of control | dose: 400.0 mg/kg/injection, schedule: Q01DX009 (sc), vehicle: steriod suspending solution 100 % of control

O=C(CCCCCCCCC(=O)OO)OO (tested in a mixture with another compound)
inactive: [3] 98 % of control | [4] 92 % of control | [5] 90 % of control

CC(C)CC(NS(=O)(=O)Cc1ccccc1)C(=O)NNc1ccccc1 (centres undefined)
inactive: dose: 100.0 mg/kg/injection, schedule: Q01DX001 (ip), vehicle: other 97 % of control | dose: 100.0 mg/kg/injection, schedule: Q04DX003 (ip), vehicle: other 95 % of control | dose: 200.0 mg/kg/injection, schedule: Q01DX001 (ip), vehicle: other 94 % of control | dose: 200.0 mg/kg/injection, schedule: Q04DX003 (ip), vehicle: other 91 % of control | dose: 400.0 mg/kg/injection, schedule: Q01DX001 (ip), vehicle: other 92 % of control

CCOC(=O)C1(C(=O)OCC)C(C)CC2Nc3cc4c(cc3C(=O)N21)OCO4 (centres undefined)
inactive: dose: 25.0 mg/kg/injection, schedule: Q04DX003 (ip), vehicle: Klucel (hydroxypropylcellulose) (HPC) 94 % of control | dose: 50.0 mg/kg/injection, schedule: Q04DX003 (ip), vehicle: Klucel (hydroxypropylcellulose) (HPC) 101 % of control | [9] 97 % of control

N#C/C(C(N)=O)=C1\CCCc2sccc21
inactive: [10] 102 % of control | [11] 95 % of control

CC(C)C1(C(C)C)S(=O)(=O)CCS1(=O)=O
inactive: [10] 98 % of control | [11] 93 % of control | dose: 400.0 mg/kg/injection, schedule: Q01DX001 (ip), vehicle: saline 102 % of control

CCCCCCCCCCCCCCCCC1(c2ccccc2)NC(=O)NC1=O (centres undefined)
inactive: [9] 93 % of control | dose: 200.0 mg/kg/injection, schedule: Q04DX003 (ip), vehicle: Klucel (hydroxypropylcellulose) (HPC) 95 % of control | dose: 400.0 mg/kg/injection, schedule: Q04DX003 (ip), vehicle: Klucel (hydroxypropylcellulose) (HPC) 98 % of control

N#CCCSc1ccccc1
inactive: dose: 25.0 mg/kg/injection, schedule: Q01DX009 (ip), vehicle: saline with Tween-80 112 % of control | dose: 50.0 mg/kg/injection, schedule: Q01DX009 (ip), vehicle: saline with Tween-80 91 % of control | [8] 100 % of control and 105 % of control | [1] 86 % of control | [2] 100 % of control

CCCN1CCc2cc(OC)c(OC)cc2C1Cc1ccc(OC)c(OC)c1 (centres undefined)
inactive: dose: 75.0 mg/kg/injection, schedule: Q01DX001 (ip), vehicle: other 109 % of control | dose: 150.0 mg/kg/injection, schedule: Q01DX001 (ip), vehicle: other 102 % of control
